Laboratory results taken from PubChem BioAssay AID256 (DTP/NCI, 2004).
Inconclusive results and toxic doses are left out.

Test system: CD2F1 mice, L1210 leukemia ip, survival T/C
Assay: NCI In Vivo Anticancer Drug Screen. Data for tumor model L1210 Leukemia (intraperitoneal) in CD2F1 (CDF1) mice
Details: higher = longer survival
Procedure, shortened: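 Tumor-bearing mice (transplanted tumor) were split into treated and vehicle control groups, and the measured endpoint of each treated group was divided by that of its vehicle controls.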

[1] = endpoint: mean survival time, dose: 100.0 mg/kg/injection, schedule: Q04DX002 (ip), vehicle: saline with Tween-80
[2] = endpoint: mean survival time, dose: 200.0 mg/kg/injection, schedule: Q04DX002 (ip), vehicle: saline with Tween-80
[3] = endpoint: mean survival time, dose: 400.0 mg/kg/injection, schedule: Q04DX002 (ip), vehicle: saline with Tween-80
[4] = endpoint: mean survival time, dose: 100.0 mg/kg/injection, schedule: Q01DX009 (ip), vehicle: saline with Tween-80
[5] = endpoint: mean survival time, dose: 200.0 mg/kg/injection, schedule: Q01DX009 (ip), vehicle: saline with Tween-80
[6] = endpoint: mean survival time, dose: 400.0 mg/kg/injection, schedule: Q01DX009 (ip), vehicle: saline with Tween-80
[7] = endpoint: mean survival time, dose: 100.0 mg/kg/injection, schedule: Q04DX003 (ip), vehicle: saline with Tween-80
[8] = endpoint: mean survival time, dose: 200.0 mg/kg/injection, schedule: Q04DX003 (ip), vehicle: saline with Tween-80
[9] = endpoint: mean survival time, dose: 400.0 mg/kg/injection, schedule: Q04DX003 (ip), vehicle: saline with Tween-80
[10] = endpoint: mean survival time, dose: 100.0 mg/kg/injection, schedule: Q04DX003 (ip), vehicle: saline
[11] = endpoint: mean survival time, dose: 200.0 mg/kg/injection, schedule: Q04DX003 (ip), vehicle: saline
[12] = endpoint: mean survival time, dose: 400.0 mg/kg/injection, schedule: Q04DX003 (ip), vehicle: saline
[13] = endpoint: mean survival time, dose: 100.0 mg/kg/injection, schedule: Q01DX001 (ip), vehicle: saline with Tween-80
[14] = endpoint: mean survival time, dose: 200.0 mg/kg/injection, schedule: Q01DX001 (ip), vehicle: saline with Tween-80
[15] = endpoint: mean survival time, dose: 400.0 mg/kg/injection, schedule: Q01DX001 (ip), vehicle: saline with Tween-80
[16] = endpoint: mean survival time, dose: 75.0 mg/kg/injection, schedule: Q01DX001 (ip), vehicle: other
[17] = endpoint: median survival time, dose: 25.0 mg/kg/injection, schedule: Q01DX009 (ip), vehicle: saline with Tween-80
[18] = endpoint: median survival time, dose: 50.0 mg/kg/injection, schedule: Q01DX009 (ip), vehicle: saline with Tween-80
[19] = endpoint: median survival time, dose: 100.0 mg/kg/injection, schedule: Q01DX009 (ip), vehicle: saline with Tween-80

## O=C(O)C(O)C(O)C(O)CO.[Zn+2] (stereo not given)
endpoint: mean survival time, dose: 6.25 mg/kg/injection, schedule: Q01DX005 (ip), vehicle: saline with Tween-80
  T/C: 108 % of control
endpoint: mean survival time, dose: 12.5 mg/kg/injection, schedule: Q01DX005 (ip), vehicle: saline with Tween-80
  T/C: 108 % of control
endpoint: mean survival time, dose: 12.5 mg/kg/injection, schedule: Q04DX003 (ip), vehicle: saline
  T/C: 95 % of control
endpoint: mean survival time, dose: 25.0 mg/kg/injection, schedule: Q01DX005 (ip), vehicle: saline with Tween-80
  T/C: 103 % of control
endpoint: mean survival time, dose: 25.0 mg/kg/injection, schedule: Q04DX003 (ip), vehicle: saline
  T/C: 95 % of control
endpoint: mean survival time, dose: 50.0 mg/kg/injection, schedule: Q04DX003 (ip), vehicle: saline
  T/C: 101 % of control

## O=C1CC(c2ccccc2)C(c2ccccc2)N1Cc1ccccc1 (stereo not given)
endpoint: mean survival time, dose: 100.0 mg/kg/injection, schedule: Q04DX003 (ip), vehicle: other
  T/C: 93 % of control
endpoint: mean survival time, dose: 200.0 mg/kg/injection, schedule: Q04DX003 (ip), vehicle: other
  T/C: 93 % of control
endpoint: mean survival time, dose: 400.0 mg/kg/injection, schedule: Q04DX003 (ip), vehicle: other
  T/C: 97 % of control

## Cc1cc(=O)c(C(=O)O)c(C)[nH]1
[1]
  T/C: 86 % of control
[2]
  T/C: 86 % of control
[3]
  T/C: 91 % of control

## O=C(Nc1cccc(C(F)(F)F)c1)c1ccc(Cl)cc1
[1]
  T/C: 97 % of control
[2]
  T/C: 105 % of control
[3]
  T/C: 105 % of control

## COC(=O)C1(C)CCCC2(C)C1CCC13OC1C1(C(C)C)OC1CC23 (stereo not given)
[4]
  T/C: 98 % of control
[5]
  T/C: 104 % of control
[6]
  T/C: 98 % of control

## COc1ccc(NC(=O)Nc2cc(C)on2)c(Cl)c1
endpoint: mean survival time, dose: 50.0 mg/kg/injection, schedule: Q01DX009 (ip), vehicle: Klucel (hydroxypropylcellulose) (HPC)
  T/C: 91 % of control
endpoint: mean survival time, dose: 100.0 mg/kg/injection, schedule: Q01DX009 (ip), vehicle: Klucel (hydroxypropylcellulose) (HPC)
  T/C: 95 % of control
endpoint: mean survival time, dose: 100.0 mg/kg/injection, schedule: Q04DX003 (ip), vehicle: Klucel (hydroxypropylcellulose) (HPC)
  T/C: 110 % of control
endpoint: mean survival time, dose: 200.0 mg/kg/injection, schedule: Q01DX009 (ip), vehicle: Klucel (hydroxypropylcellulose) (HPC)
  T/C: 98 % of control
endpoint: mean survival time, dose: 200.0 mg/kg/injection, schedule: Q04DX003 (ip), vehicle: Klucel (hydroxypropylcellulose) (HPC)
  T/C: 106 % of control
endpoint: mean survival time, dose: 400.0 mg/kg/injection, schedule: Q04DX003 (ip), vehicle: Klucel (hydroxypropylcellulose) (HPC)
  T/C: 106 % of control

## COc1ccc(NC(=O)CC(C)(C)C(=O)O)cc1
[7]
  T/C: 101 % of control
[8]
  T/C: 100 % of control
[9]
  T/C: 103 % of control

## CC12CCc3c(ccc4cc(O)ccc34)C1CCC2=O (stereo not given)
[10]
  T/C: 100 % of control
[11]
  T/C: 97 % of control
[12]
  T/C: 97 % of control

## Cc1ccc(NC(=S)NCCO)cc1C
[4]
  T/C: 114 % of control

## CN(C)c1ccc(N=Nc2ccc([As](=O)(O)O)cc2)cc1
endpoint: mean survival time, dose: 6.25 mg/kg/injection, schedule: Q01DX009 (ip), vehicle: saline with Tween-80
  T/C: 91 % of control
endpoint: mean survival time, dose: 12.5 mg/kg/injection, schedule: Q01DX001 (ip), vehicle: saline with Tween-80
  T/C: 110 % of control
endpoint: mean survival time, dose: 12.5 mg/kg/injection, schedule: Q01DX009 (ip), vehicle: saline with Tween-80
  T/C: 89 % of control

## NC(=O)CCC(N)C(=O)O (stereo not given)
endpoint: mean survival time, dose: 1.56 mg/kg/injection, schedule: Q01DX009 (ip), vehicle: saline
  T/C: 93 % of control
endpoint: mean survival time, dose: 3.13 mg/kg/injection, schedule: Q01DX009 (ip), vehicle: saline
  T/C: 104 % of control
endpoint: mean survival time, dose: 6.25 mg/kg/injection, schedule: Q01DX009 (ip), vehicle: saline
  T/C: 104 % of control
endpoint: median survival time, dose: 25.0 mg/kg/injection, schedule: Q01DX009 (ip), vehicle: saline
  T/C: 94 % of control
endpoint: median survival time, dose: 50.0 mg/kg/injection, schedule: Q01DX009 (ip), vehicle: saline
  T/C: 106 % of control
endpoint: median survival time, dose: 100.0 mg/kg/injection, schedule: Q01DX009 (ip), vehicle: saline
  T/C: 106 % of control
endpoint: median survival time, dose: 200.0 mg/kg/injection, schedule: Q01DX009 (ip), vehicle: saline
  T/C: 106 % of control
endpoint: median survival time, dose: 400.0 mg/kg/injection, schedule: Q01DX009 (ip), vehicle: saline
  T/C: 104 % of control

## Cc1cccc(Cl)c1NC(=O)Nc1ccc(C(=O)O)c(O)c1
[4]
  T/C: 97 % of control
[5]
  T/C: 103 % of control
[6]
  T/C: 114 % of control

## Nc1ccc(-c2nc(=S)c3cn[nH]c3[nH]2)cc1
endpoint: mean survival time, dose: 12.5 mg/kg/injection, schedule: Q01DX005 (ip), vehicle: other
  T/C: 92 % of control
endpoint: mean survival time, dose: 25.0 mg/kg/injection, schedule: Q01DX005 (ip), vehicle: other
  T/C: 94 % of control
endpoint: mean survival time, dose: 50.0 mg/kg/injection, schedule: Q01DX005 (ip), vehicle: other
  T/C: 91 % of control
endpoint: mean survival time, dose: 100.0 mg/kg/injection, schedule: Q01DX005 (ip), vehicle: other
  T/C: 91 % of control
endpoint: mean survival time, dose: 200.0 mg/kg/injection, schedule: Q01DX005 (ip), vehicle: other
  T/C: 95 % of control

## O=C1CSC(=O)N1
[7]
  T/C: 94 % of control
[8]
  T/C: 93 % of control
[9]
  T/C: 92 % of control

## CC(C)c1ccc(-n2cnc3c(=O)[nH]c(N)nc32)cc1
[13]
  T/C: 94 % of control
[14]
  T/C: 94 % of control
[15]
  T/C: 91 % of control

## N/C(=N\O)c1ncn(C2CCCC2)c1N
[16]
  T/C: 100 % of control
endpoint: mean survival time, dose: 150.0 mg/kg/injection, schedule: Q01DX001 (ip), vehicle: other
  T/C: 102 % of control

## Cc1nc(-c2ccc(N=Cc3ccc(N(CCOS(C)(=O)=O)CCOS(C)(=O)=O)cc3C)cc2)c(C)s1
endpoint: mean survival time, dose: 5.0 mg/kg/injection, schedule: Q01DX001 (ip), vehicle: Klucel (hydroxypropylcellulose) (HPC)
  T/C: 101 % of control
endpoint: mean survival time, dose: 10.0 mg/kg/injection, schedule: Q01DX001 (ip), vehicle: Klucel (hydroxypropylcellulose) (HPC)
  T/C: 104 % of control
endpoint: mean survival time, dose: 20.0 mg/kg/injection, schedule: Q01DX001 (ip), vehicle: Klucel (hydroxypropylcellulose) (HPC)
  T/C: 104 % of control
endpoint: mean survival time, dose: 40.0 mg/kg/injection, schedule: Q01DX001 (ip), vehicle: Klucel (hydroxypropylcellulose) (HPC)
  T/C: 115 % of control

## CC(=O)C[n+]1ccc(C)cc1Sc1ccccc1C
[17]
  T/C: 98 % of control
[18]
  T/C: 96 % of control
[19]
  T/C: 98 % of control

## CS(=O)(=O)c1nccc2ccccc12
[10]
  T/C: 90 % of control
[11]
  T/C: 88 % of control
[12]
  T/C: 95 % of control

## CC(C)CCCCN(CCCCC(C)C)CC(O)c1cc2c(c3ccccc13)CCCC2 (stereo not given)
[13]
  T/C: 94 % of control
[14]
  T/C: 97 % of control
[15]
  T/C: 102 % of control

## O=C(O)c1cccc([N+](=O)[O-])c1C(=O)c1ccccc1
[4]
  T/C: 107 % of control
[5]
  T/C: 102 % of control

## Cc1cc(C)cc(OC(=O)/C=C/C(=O)Oc2cc(C)cc(C)c2)c1
[7]
  T/C: 100 % of control
[8]
  T/C: 95 % of control
[9]
  T/C: 96 % of control

## CCOP(=O)(OCC)C1=C(CC)CC1
[16]
  T/C: 98 % of control

## CC(/C=C/c1ccccc1)=Nc1ccccc1
[7]
  T/C: 106 % of control
[8]
  T/C: 103 % of control
[9]
  T/C: 106 % of control
endpoint: median survival time, dose: 12.5 mg/kg/injection, schedule: Q01DX009 (ip), vehicle: saline with Tween-80
  T/C: 108 % of control
[17]
  T/C: 98 % of control
[18]
  T/C: 111 % of control
[19]
  T/C: 107 % of control
endpoint: median survival time, dose: 200.0 mg/kg/injection, schedule: Q01DX009 (ip), vehicle: saline with Tween-80
  T/C: 104 % of control

## COc1cccc2c1C(=O)c1c(O)c3c(c(O)c1C2=O)C[C@@](O)(C(=O)COC(C)=O)C[C@@H]3OC1CC(N)C(O)C(C)O1 (stereo not given in full)
endpoint: mean survival time, dose: 3.0 mg/kg/injection, schedule: Q01DX009 (ip), vehicle: saline
  T/C: 156 % of control
endpoint: mean survival time, dose: 3.0 mg/kg/injection, schedule: Q04DX003 (ip), vehicle: saline with Tween-80
  T/C: 118 % of control

## O=C(CNC(=O)Nc1cccc(C(F)(F)F)c1)N/N=C/c1cccc([N+](=O)[O-])c1
endpoint: mean survival time, dose: 50.0 mg/kg/injection, schedule: Q01DX009 (ip), vehicle: saline with Tween-80
  T/C: 96 % of control
[4]
  T/C: 88 % of control
[5]
  T/C: 92 % of control

## CCCCCCCCC(=O)OCC1OC(n2cnc3c(N)nc(Cl)nc32)CC1O (stereo not given)
endpoint: median survival time, dose: 40.0 mg/kg/injection, schedule: Q01DX009 (ip), vehicle: saline with Tween-80
  T/C: 161 % of control
[18]
  T/C: 344 % of control
endpoint: median survival time, dose: 60.0 mg/kg/injection, schedule: Q01DX009 (ip), vehicle: saline with Tween-80
  T/C: 177 % of control
endpoint: median survival time, dose: 80.0 mg/kg/injection, schedule: Q01DX009 (ip), vehicle: saline with Tween-80
  T/C: 97 % of control
[19]
  T/C: 102 % of control
